The experiment addresses hemoglobin (Hb) (Homo sapiens, UniProt P68871+P69905). As to the kind of experiment: oxygen equilibrium curves / P50 of hemoglobin treated with 2,3-BPG and phthalide compounds. Type of experiment: biochemical. To be noted: for effect of phthalide compound together with 2,3-BPG (lowering the oxygen affinity of hemoglobin): FIG. 1. The text has this: The oxygen affinity of hemoglobin is commonly characterized by P50 value. The P50 value is the required oxygen partial pressure for hemoglobin to achieve 50% oxygen saturation.

Here are results for three compounds from US20170266156A1, “METHOD FOR PREVENTING CANCER BY USING PHTHALIDES” (National Sun Yat-sen University, priority 2016, published 2017).

Structures are written as SMILES.

hemoglobin (Hb), sequence (P69905 2-142 limits assumed): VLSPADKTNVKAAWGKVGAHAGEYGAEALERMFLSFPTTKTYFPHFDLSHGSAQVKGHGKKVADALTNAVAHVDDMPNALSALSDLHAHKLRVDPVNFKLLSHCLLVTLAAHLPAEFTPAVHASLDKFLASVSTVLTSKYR
hemoglobin (Hb), sequence (P68871 2-147 limits assumed): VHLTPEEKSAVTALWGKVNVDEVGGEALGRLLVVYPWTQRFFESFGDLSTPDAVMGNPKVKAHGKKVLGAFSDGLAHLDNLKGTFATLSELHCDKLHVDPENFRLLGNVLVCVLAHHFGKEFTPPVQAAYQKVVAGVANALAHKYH

`CCC/C=C1\OC(=O)C2=C1CC[C@@H](O)[C@@H]2O` [senkyunolide I]: the “effect of phthalide compound together with 2,3-BPG (lowering the oxygen affinity of hemoglobin)” value was “synergistic effect”.

Turning to `CCC/C=C1\OC(=O)C2=C1CCC=C2` [Z-ligustilide], the “effect of phthalide compound together with 2,3-BPG (lowering the oxygen affinity of hemoglobin)” value is reported as “synergistic effect”.

Consider `O=C(O)C(COP(=O)(O)O)OP(=O)(O)O` (centres unmarked) [2,3-BPG, 2,3-bisphosphorglycerate], for which, where the note is “1.2 mM 2,3-BPG, PO2 of 20 mmHg”, the “oxygen release efficiency of hemoglobin” value was 40% and the “oxygen saturation fraction of hemoglobin” value is “approximately 60%”. Further, for the setting “12 mM 2,3-BPG, fixed oxygen partial pressure of 20 mmHg, 80% where no 2,3-BPG is present”, the “oxygen saturation fraction of hemoglobin (Hb)” value is listed as 35%. Moreover, the oxygen release efficiency (12 mM 2,3-BPG, oxygen partial pressure 20 mmHg, 20% without 2,3-BPG) was 65%. The “change of P50 value with 2,3-BPG concentration” value (FIG. 2, various 2,3-BPG concentrations up to 12.0 mM) is reported as “higher”. For the setting “approximately 4 mM 2,3-BPG, no phthalide compound”, the P50 value came out at 18.8 mmHg.
